This note sets out measurements from paper PMC6151508, “Development of Novel Nrf2/ARE Inducers Bearing Pyrazino[2,1-a]isoquinolin Scaffold with Potent In Vitro Efficacy and Enhanced Physicochemical Properties” (Molecules : A Journal of Synthetic Chemistry and Natural …, 2017).

Series [1] is described as follows: MTT cell viability (cytotoxicity) assay. Format: cell-based. The conditions noted are these: human, HCT116 cells. The method, then: (§1) All the derivatives were evaluated for their ability to induce ARE in HepG2-ARE-C8 cell (HepG2 cells stably transfected with a luciferase reporter) by ARE luciferase reporter assay, and they were compared to the lead compound 2. At the same time, cytotoxicity studies were performed by the MTT assay against the HCT116 cells. The results of cytotoxic activity in vitro were expressed as the IC50 [18]. Because those compounds were designed for chemoprevention, they should not be cytotoxic.
Cell viabilities were determined by using 3-[4,5-dimethylthiazol-2-yl]-2,5-diphenyltetrazolium bromide (MTT) assay. MTT was dissolved in (phosphate buffered solution) PBS to a concentration of 5 mg/mL. HCT116 cells (8 × 10^3 cells/well) were plated in 96-well plates and incubated overnight. Different concentrations of test compounds were added to each cell for 24 h at 37 °C, and the 20 μL MTT solution was added and incubated for an additional 4 h. Then, 100 μL of DMSO was added to dissolve formazan precipitate after the solution was removed. The OD value was determined at 570 nm by Elx800 absorbance microplate reader (BioTek, Winooski, VT, USA). IC50 value (concentration at which cell survival equals 50% of control) = […].

The test system of series [2] is antioxidant response element (ARE). As to the kind of experiment: ARE luciferase reporter assay in HepG2-ARE-C8 cells. Format: cell-based. The conditions noted are these: HepG2-ARE-C8, 12 h of treatment, mean ± SD n = 3, read-out: ARE Inductivity in Luciferase Reporter Assay (induction fold). The procedure: as §1
HepG2-ARE-C8 cells (4 × 10^4 cells/well) were incubated overnight in 96-well plates, and then treated with different concentrations of test compounds. tBHQ was used as a positive control, DMSO was used as a negative control, and the luciferase cell culture lysis reagent was used as a blank. The medium was removed after 12 h treatment. Then, the cells were harvested in the luciferase cell culture lysis reagent together with 100 μL of cold PBS. Then, centrifuging the solution and 20 μL of the supernatant was used for determining the luciferase activity. The luciferase activity was measured by a Luminoskan Ascent (Thermo Scientific, Waltham, MA, USA). The data were obtained in triplicate and expressed as fold induction over the control. Induction fold = (RLUtest − RLUblank)/(RLUDMSOcontrol − RLUblank). RLU = relative light unit l.

Structures can show the parent of a compound that is named as a salt.

As usually defined, the IC50 is the midpoint of a concentration-inhibition curve. As usually defined, the melting point is the temperature of the solid-liquid transition.

`Nc1cccc(C(=O)C=C2NCC3c4ccccc4CCN3C2=O)c1` (stereo not drawn) [Compound 1a, 3-(2-(3-aminophenyl)-2-oxoethylidene)-1,2,3,6,7,11b-hexahydro-4H-pyrazino[2,1-a]isoquinolin-4-one] gave a melting point of 206 to 208 °C. For the same compound, the IC50 at 24 h in series [1] was greater than 300 µM. Besides, in series [2], the fold induction at 0.1 µM came out at 0.56 ± 0.28, the fold induction at 1 µM turned out to be 1.66 ± 0.05, the fold induction at 5 µM turned out to be 2.4 ± 1.18 and the fold induction at 10 µM is 5.64 ± 2.06. In series [2], the fold induction at 50 µM came out at 7.53 ± 1.28 and the fold induction at 100 µM was determined as 7.62 ± 2.79.

For the compound `Nc1ccc(C(=O)C=C2NCC3c4ccccc4CCN3C2=O)cc1` (stereo not drawn) [Compound 1b, 3-(2-(4-aminophenyl)-2-oxoethylidene)-1,2,3,6,7,11b-hexahydro-4H-pyrazino[2,1-a]isoquinolin-4-one], the melting point fell in the range of 238 to 240 °C. In series [1], this compound yielded a half-maximal inhibitory concentration (IC50) at 24 h greater than 300 µM. In series [2], the fold induction at 0.1 µM is 1.26 ± 0.28, the fold induction at 1 µM worked out at 1.26 ± 0.73, the fold induction at 5 µM worked out at 2.78 ± 0.29 and the fold induction at 10 µM came to 3.45 ± 0.03. In series [2], the fold induction at 50 µM amounted to 2.75 ± 0.68 and the fold induction at 100 µM stood at 2.68 ± 0.31.

Regarding `CC(=O)Nc1cccc(C(=O)C=C2NCC3c4ccccc4CCN3C2=O)c1` (stereo not drawn) [Compound 1c, N-(3-(2-(4-oxo-1,6,7,11b-tetrahydro-2H-pyrazino[2,1-a]isoquinolin-3(4H)-ylidene)acetyl)phenyl)acetamide], the melting point was 247 to 249 °C. Further, the half-inhibitory concentration (IC50) at 24 h in series [1] is greater than 300 µM. Besides, in series [2], the fold induction at 0.1 µM stood at 0.8 ± 0.19, the fold induction at 1 µM amounted to 0.78 ± 0.36, the fold induction at 5 µM is 2.3 ± 0.39 and the fold induction at 10 µM was 3.05 ± 0.53. For the same compound, in series [2], the fold induction at 50 µM stood at 3.09 ± 0.09 and the fold induction at 100 µM stood at 3.41 ± 0.65.

In turn, `CC(=O)Nc1ccc(C(=O)C=C2NCC3c4ccccc4CCN3C2=O)cc1` (stereo not drawn) [Compound 1d, N-(4-(2-(4-oxo-1,6,7,11b-tetrahydro-2H-pyrazino[2,1-a]isoquinolin-3(4H)-ylidene)acetyl)phenyl)acetamide] had a melting point of 279 to 281 °C. The compound also had an IC50 at 24 h in series [1] greater than 300 µM. In series [2], the fold induction at 0.1 µM was 1.24 ± 0.23, the fold induction at 1 µM was 1.09 ± 0.72, the fold induction at 5 µM is 1.49 ± 0.16 and the fold induction at 10 µM stood at 2.94 ± 1.9. For the same compound, in series [2], the fold induction at 50 µM was 7.14 ± 0.34 and the fold induction at 100 µM amounted to 10.07 ± 0.05.

In turn, `CCCC(=O)C=C1NCC2c3ccccc3CCN2C1=O` (stereo not drawn) [Compound 2a, 3-(2-oxopentylidene)-1,2,3,6,7,11b-hexahydro-4H-pyrazino[2,1-a]isoquinolin-4-one] had a melting point of 158 to 160 °C. The compound also showed an IC50 at 24 h in series [1] greater than 300 µM. Besides, in series [2], the fold induction at 0.1 µM stood at 2.38 ± 0.11, the fold induction at 1 µM was found to be 2.28 ± 0.78, the fold induction at 5 µM came out at 2.55 ± 0.31 and the fold induction at 10 µM is 3.09 ± 1.09. In series [2], the fold induction at 50 µM came out at 6.74 ± 0.67 and the fold induction at 100 µM turned out to be 19.6 ± 0.47.

`O=C(C=C1NCC2c3ccccc3CCN2C1=O)C1CC1` (stereo not drawn) [Compound 2b, 3-(2-cyclopropyl-2-oxoethylidene)-1,2,3,6,7,11b-hexahydro-4H-pyrazino[2,1-a]isoquinolin-4-one] registered a melting point of 173 to 175 °C. For the same compound, the IC50 at 24 h in series [1] was greater than 300 µM. In addition, in series [2], the fold induction at 0.1 µM came out at 3.71 ± 1.41, the fold induction at 1 µM is 3.57 ± 1.08, the fold induction at 5 µM amounted to 4.85 ± 0.82 and the fold induction at 10 µM worked out at 6.58 ± 2. Besides, in series [2], the fold induction at 50 µM came out at 8.24 ± 0.62 and the fold induction at 100 µM stood at 12.9 ± 1.73.

For the compound `COC(=O)/C=C/C(=O)OC` [DMF, Dimethyl fumarate, reference compound], in series [2], the fold induction at 0.1 µM was 1.04 ± 0.21, the fold induction at 1 µM turned out to be 1.1 ± 0.11, the fold induction at 5 µM is 1.4 ± 0.21 and the fold induction at 10 µM worked out at 2.06 ± 0.25. In series [2], the fold induction at 50 µM was 3.34 ± 0.52 and the fold induction at 100 µM stood at 5.31 ± 0.24.
